From patent US20240124432A1, “HERBICIDAL COMPOUNDS” (SYNGENTA CROP PROTECTION AG, priority 2020, published 2024) come the findings set out here.

Holding throughout (assay type): in vivo
Assay [1] deals with AMAPA. Briefly: Pre-emergence biological efficacy. As to conditions: Amaranthus palmeri, 312 h, evaluated after 13 days, read-out: damage to plant (100=total damage to plant; 0=no damage to plant). The method, then: (§1) Seeds of weeds and/or crops were sown in standard soil in pots. After cultivation for one day under controlled conditions in a glasshouse (at 24/19° C., day/night; 16 hours light), the plants were sprayed with an aqueous spray solution derived from the formulation of the technical active ingredient in a small amount of acetone and a special solvent and emulsifier mixture referred to as IF50 (11.12% Emulsogen EL360 TM+44.44% N-methylpyrrolidone+44.44% Dowanol DPM glycol ether), to create a 50g/l solution which was then diluted using 0.2% Genapol XO80 as diluent to give the desired final dose of test compound.
(§2) The test plants were then grown under controlled conditions in the glasshouse (at 24/18° C., day/night; 15 hours light; 50% humidity) and watered twice daily. After 13 days the test was evaluated (100=total damage to plant; 0=no damage to plant).

Assay [2] relates to ECHCG. Put plainly: Pre-emergence biological efficacy. The following applies: Echinochloa crus-galli, 312 h, evaluated after 13 days, read-out: damage to plant (100=total damage to plant; 0=no damage to plant). The procedure: as §1, §2
Assay [3] deals with EPHHL. Briefly: Pre-emergence biological efficacy. As to conditions: Euphorbia heterophylla, 312 h, evaluated after 13 days, read-out: damage to plant (100=total damage to plant; 0=no damage to plant). The method, then: as §1, §2
Assay [4] has as its system IPOHE. Put plainly: Pre-emergence biological efficacy. The following applies: Ipomoea hederacea, 312 h, evaluated after 13 days, read-out: damage to plant (100=total damage to plant; 0=no damage to plant). The method, then: as §1, §2
The subject of assay [5] is LOLPE. Briefly: Pre-emergence biological efficacy. The following applies: Lolium perenne, 312 h, evaluated after 13 days, read-out: damage to plant (100=total damage to plant; 0=no damage to plant). The procedure: as §1, §2
For assay [6], the system named is SETFA. Briefly: Pre-emergence biological efficacy. As to conditions: Setaria faberi, 312 h, evaluated after 13 days, read-out: damage to plant (100=total damage to plant; 0=no damage to plant). The procedure: as §1, §2
Assay [7] concerns AMAPA. Briefly: Post-emergence biological efficacy. The following applies: Amaranthus palmeri, 312 h, evaluated after 13 days, read-out: damage to plant (100=total damage to plant; 0=no damage to plant). The method, then:
as §1, with “14 days” for “one day”
(§3) The test plants were then grown under controlled conditions in the glasshouse (at 24/18° C., day/night; 15 hours light; 50% humidity)and watered twice daily. After 13 days the test was evaluated (100=total damage to plant; 0=no damage to plant).

The next assay deals with CHEAL. Briefly: Post-emergence biological efficacy. As to conditions: Chenopodium album, 312 h, evaluated after 13 days, read-out: damage to plant (100=total damage to plant; 0=no damage to plant). The procedure: as §1, with “14 days” for “one day”
as §3

The test system of a further assay is DIGSA. Briefly: Post-emergence biological efficacy. As to conditions: Digitaria sanguinalis, 312 h, evaluated after 13 days, read-out: damage to plant (100=total damage to plant; 0=no damage to plant). The method, then:
as §1, with “14 days” for “one day”
as §3

Assay [8] concerns ECHCG. Put plainly: Post-emergence biological efficacy. The following applies: Echinochloa crus-galli, 312 h, evaluated after 13 days, read-out: damage to plant (100=total damage to plant; 0=no damage to plant). The procedure:
as §1, with “14 days” for “one day”
as §3

The next assay concerns ELEIN. Briefly: Post-emergence biological efficacy. As to conditions: 312 h, evaluated after 13 days, read-out: damage to plant (100=total damage to plant; 0=no damage to plant). The procedure:
as §1, with “14 days” for “one day”
as §3

Assay [9] deals with EPHHL. Put plainly: Post-emergence biological efficacy. As to conditions: Euphorbia heterophylla, 312 h, evaluated after 13 days, read-out: damage to plant (100=total damage to plant; 0=no damage to plant). The procedure: as §1, with “14 days” for “one day”
as §3

Assay [10] deals with IPOHE. Briefly: Post-emergence biological efficacy. The following applies: Ipomoea hederacea, 312 h, evaluated after 13 days, read-out: damage to plant (100=total damage to plant; 0=no damage to plant). The method, then:
as §1, with “14 days” for “one day”
as §3

The test system of assay [11] is LOLPE. Put plainly: Post-emergence biological efficacy. As to conditions: Lolium perenne, 312 h, evaluated after 13 days, read-out: damage to plant (100=total damage to plant; 0=no damage to plant). The method, then: as §1, with “14 days” for “one day”
as §3

The test system of assay [12] is SETFA. Briefly: Post-emergence biological efficacy. The following applies: Setaria faberi, 312 h, evaluated after 13 days, read-out: damage to plant (100=total damage to plant; 0=no damage to plant). The method, then:
as §1, with “14 days” for “one day”
as §3

In the case of `CCOC(=O)C1(C)CC(c2cc(-c3cccnc3F)c(F)cc2Cl)=NO1` (stereo not drawn) [Compound 1-211, Ethyl 3-[2-chloro-4-fluoro-5-(2-fluoro-3-pyridyl)phenyl]-5-methyl-4H-isoxazole-5-carboxylate], the pest or weed control at 250 g/ha in the assay on AMAPA [1], in the assay on ECHCG [2], in the assay with EPHHL [3], in the assay on IPOHE [4], with LOLPE [5] and in the assay with SETFA [6] was 0% each time. In addition, the pest or weed control at 250 g/ha with AMAPA [7] was 100%; with CHEAL it was 90%; in the assay with DIGSA it was 10%; in the assay with ECHCG [8], 20%; in the assay with ELEIN it was 20%; in the assay with EPHHL [9], 30%. In addition, the pest or weed control at 250 g/ha came to 50% in the assay on IPOHE [10], 0% in the assay on LOLPE [11] and 20% in the assay on SETFA [12].

In the case of `CCOC(=O)C1(C)CC(c2cc(-c3ncc(Cl)cc3Cl)c(F)cc2Cl)=NO1` (stereo not drawn) [Compound 1-115, Ethyl 3-[2-chloro-5-(3,5-dichloro-2-pyridyl)-4-fluoro-phenyl]-5-methyl-4H-isoxazole-5-carboxylate], the pest or weed control at 250 g/ha in the assay on AMAPA [1] was determined as 100%; with ECHCG [2], 80%; with EPHHL [3] it was 100%; in the assay on IPOHE [4], 80%; with LOLPE [5], 50%; with SETFA [6] it was 60%. Besides, the pest or weed control at 250 g/ha in the assay with AMAPA [7], with CHEAL, in the assay on DIGSA, with ECHCG [8], in the assay with ELEIN and with EPHHL [9] was 100% in each case. Moreover, the pest or weed control at 250 g/ha in the assay with IPOHE [10], in the assay with LOLPE [11] and in the assay with SETFA [12] was 100% in each case.

In the case of `CCOC(=O)C1(C)CC(c2cc(-c3cnccc3OC)c(F)cc2Cl)=NO1` (stereo not drawn) [Compound 1-259, Ethyl 3-[2-chloro-4-fluoro-5-(4-methoxy-3-pyridyl)phenyl]-5-methyl-4H-isoxazole-5-carboxylate], the pest or weed control at 250 g/ha in the assay with AMAPA [1], in the assay with ECHCG [2], in the assay with EPHHL [3], in the assay with IPOHE [4], in the assay with LOLPE [5] and with SETFA [6] was 0% throughout. Moreover, the pest or weed control at 250 g/ha amounted to 60% in the assay with AMAPA [7]; 80% in the assay on CHEAL; 40% in the assay with DIGSA; 20% with ECHCG [8]; 20% in the assay with ELEIN; 20% in the assay with EPHHL [9]. Moreover, the pest or weed control at 250 g/ha with IPOHE [10] was determined as 30%; in the assay on LOLPE [11] it was 0%; with SETFA [12], 30%.

`CCOC(=O)C1(C)CC(c2cc(-c3ccc(C)nc3F)c(F)cc2Cl)=NO1` (stereo not drawn) [Compound 1-463, Ethyl 3-[2-chloro-4-fluoro-5-(2-fluoro-6-methyl-3-pyridyl)-phenyl]-5-methyl-4H-isoxazole-5-carboxylate]: the pest or weed control at 250 g/ha amounted to 20% with AMAPA [1]; 50% in the assay with ECHCG [2]; 20% with EPHHL [3]; 10% in the assay on IPOHE [4]; 10% with LOLPE [5]; 30% in the assay on SETFA [6]. The pest or weed control at 250 g/ha in the assay with AMAPA [7] was 70%; in the assay with CHEAL, 70%; with DIGSA, 70%; in the assay with ECHCG [8], 90%; with ELEIN, 60%; in the assay on EPHHL [9] it was 70%. Further, the pest or weed control at 250 g/ha with IPOHE [10] came to 100%; in the assay on LOLPE [11] it was 0%; in the assay on SETFA [12] it was 90%.

As to `CCOC(=O)C1(C)CC(c2cc(-c3cc(C(F)(F)F)cnc3Br)c(F)cc2Cl)=NO1` (stereo not drawn) [Compound 1-835, Ethyl 3-[5-[2-bromo-5-(trifluoromethyl)-3-pyridyl]-2-chloro-4-fluoro-phenyl]-5-methyl-4H-isoxazole-5-carboxylate], the pest or weed control at 250 g/ha with AMAPA [1] was 70%; with ECHCG [2], 0%; in the assay on EPHHL [3] it was 0%; with IPOHE [4], 10%; in the assay on LOLPE [5], 0%; in the assay with SETFA [6], 0%.

For the molecule `CCOC(=O)C1(C)CC(c2cc(-c3ccc(OC)nn3)c(F)cc2Cl)=NO1` (stereo not drawn) [Compound 1-703, Ethyl 3-[2-chloro-4-fluoro-5-(6-methoxypyridazin-3-yl)phenyl]-5-methyl-4H-isoxazole-5-carboxylate], the pest or weed control at 250 g/ha was 0% in the assay on ECHCG [2]; 0% in the assay with EPHHL [3]; 0% in the assay on IPOHE [4]; 0% with LOLPE [5]; 0% in the assay on SETFA [6]; 100% with AMAPA [7]. Also, the pest or weed control at 250 g/ha was determined as 100% with CHEAL; 70% in the assay on DIGSA; 80% with ECHCG [8]; 70% in the assay with ELEIN; 100% in the assay on EPHHL [9]; 60% in the assay on IPOHE [10]. Also, the pest or weed control at 250 g/ha in the assay with LOLPE [11] and with SETFA [12] was 70% throughout.

On to `CCOC(=O)C1(C)CC(c2cc(-c3cnc(C(F)(F)F)cn3)c(F)cc2Cl)=NO1` (stereo not drawn) [Compound 1-751, Ethyl 3-[2-chloro-4-fluoro-5-[5-(trifluoromethyl)pyrazin-2-yl]phenyl]-5-methyl-4H-isoxazole-5-carboxylate], for which the pest or weed control at 250 g/ha amounted to 20% in the assay on AMAPA [1]; 50% in the assay on ECHCG [2]; 50% with IPOHE [4]; 20% with LOLPE [5]; 40% in the assay on SETFA [6]; 100% in the assay on AMAPA [7]. The pest or weed control at 250 g/ha in the assay with CHEAL, with DIGSA, in the assay with ECHCG [8], in the assay with ELEIN, in the assay on EPHHL [9] and in the assay with IPOHE [10] was 100% throughout. For the same molecule, the pest or weed control at 250 g/ha with LOLPE [11] amounted to 70%; with SETFA [12], 100%.

Consider `CCOC(=O)C1(C)CC(c2cc(-c3ccnc(Cl)c3Cl)c(F)cc2Cl)=NO1` (stereo not drawn) [Compound 1-535, Ethyl 3-[2-chloro-5-(2,3-dichloro-4-pyridyl)-4-fluoro-phenyl]-5-methyl-4H-isoxazole-5-carboxylate], for which the pest or weed control at 250 g/ha with ECHCG [2] turned out to be 10%; in the assay with EPHHL [3], 0%; with IPOHE [4] it was 40%; in the assay on LOLPE [5] it was 0%; with SETFA [6] it was 40%; in the assay with AMAPA [7], 100%. In addition, the pest or weed control at 250 g/ha with CHEAL was found to be 100%; in the assay with DIGSA, 90%; in the assay with ECHCG [8] it was 80%; with ELEIN it was 80%; in the assay with EPHHL [9] it was 100%; with IPOHE [10] it was 100%. The pest or weed control at 250 g/ha in the assay with LOLPE [11] is 50%; in the assay on SETFA [12] it was 100%.
